# Data taken from patent publication US5227385A, “Method for treatment of neurodegenerative diseases” (priority 1992, dated 1993).
# Legend:
# [1] = tested on: synaptosomes from the striatal area of rat brain (dopamine release); experiment: [3H]-dopamine release from striatal synaptosomes of rat brain; type: cell-based, rat (Sprague-Dawley); settings: evaluated as described in Example 1
# Description: Dopamine release was measured by preparing synaptosomes from the striatal area of rat brain generally obtained from Sprague-Dawley rats according to the procedures set forth by Nagy, et al., J. Neurochem., Vol. 43, pp. 1114-1123 (1984). Striata from 4 rats were homogenized in 2 ml of 0.32M sucrose buffered with 5 mM HEPES (pH 7.5), using a glass-teflon tissue grinder. The homogenate was diluted to 5 ml with additional homogenization solution and centrifuged at 1000×g for 10 min. This procedure was repeated on the new pellet and the resulting supernatant was centrifuged at 12,000×g for 20 min. […] Using this method, 30 to 90 percent of the dopamine was taken up into the synaptosomes, as determined by scintillation counting following filtration through glass fiber filters soaked with 0.5 percent polyethyleneimine. […] After the addition of a 0.2 ml of a 20 μM solution of ligand, the perfusate was collected into scintillation vials at 1 min. intervals and the dopamine released was quantified by scintillation counting. Peaks of radioactivity released above background were summed and the average basal release during that time was subtracted from the total. Release was expressed as a percentage of release obtained with an equal concentration of (S)-(-)-nicotine.
# [2] = molecular target: nicotinic cholinergic receptors; experiment: Inhibition of L-[3H]nicotine binding to mouse brain membranes; design: species or system mouse (DBA strain); settings: racemic mixture of ligand, 10 nM L-[3H]nicotine, 2 hr, 4° C.
# Description: Mice (DBA strain) were maintained on a 12 hour light/dark cycle and were allowed free access to water and food supplied by Wayne Lab Blox, Madison, Wis. Animals used in the present studies were 60 to 90 days of age and weighed 20 to 25 g. Brain membrane preparations were obtained from pooled brain tissue of both males and females.
# Mice were killed by cervical dislocation. Brains were removed and placed on an ice-cold platform. […] Protein was determined by the method of Lowry, et al., J. Biol. Chem., Vol. 193, pp. 265-275 (1951), using bovine serum albumin as the standard.
# The binding of L-[^3 H]nicotine was measured using a modification of the method of Romano, et al., Science, Vol. 210, pp. 647-650 (1980) as described previously by Marks, et al., Mol. Pharmacol., Vol. 30, pp. 427-436 (1986). The binding of L-[^3 H]nicotine was measured using a 2 hr. incubation at 4° C. […] Nonspecific binding was determined by inclusion of 10 μM nonradioactive nicotine in the incubations. The inhibition of L-[^3 H]nicotine binding by test compounds was determined by including one of eight different concentrations of the test compound in the incubation. […] Inhibition constants (Ki values) were calculated from the IC50 values using the method of Cheng, et al., Biochem. Pharmacol., Vol. 22, pp. 3099-3108 (1973). […]
# [3] = tested on: nicotinic cholinergic receptors; settings: chronic administration to animals; cited from earlier work
# [4] = tested on: acetylcholine release in brain tissue; settings: direct action; cited from earlier work
# [5] = in vivo; cited from earlier work
# [6] = tested on: nicotinic cholinergic receptors; settings: acute administration; cited from earlier work
structure (smiles),measurement,setting,value
"CC(=O)C1=C(C)CC2CCC1N2 (stereo not drawn) [Example 2, 2-acetyl-3-methyl-8-azabicyclo[3.2.1]oct-2-ene]",dopamine release (in words),[1],found to provide dopamine release
"CC(=O)C1=C(C)CC2CCC1N2C (stereo not drawn) [Example 3, 2-acetyl-3,8-dimethyl-8-azabicyclo[3.2.1]oct-2-ene]",dopamine release (in words),[1],found to provide dopamine release
"CC(=O)C1=CCC2CCC1N2C (stereo not drawn) [Ferruginine, ferruginine]",Ki,[2],3100 ± 500 nM
"CC(=O)C1=CCC2CCC1N2 (stereo not drawn) [Norferruginine, norferruginine]",Ki,[2],1100 ± 300 nM
CN1CCCC1c1cccnc1 (stereo not drawn) [nicotine],number of nicotinic cholinergic receptors,[3],elicit an increase in the number of such receptors
same,release of acetylcholine in brain tissue,[4],elicit the release of acetylcholine in brain tissue
same,attention,[5],enhance attention
same,cognitive functions,[5],improve cognitive functions
same,activation of nicotinic cholinergic receptors,[6],suggested to possess an ability to activate nicotinic cholinergic receptors
